# Biological target: T1, human PTH1 receptor (Homo sapiens, UniProt Q03431)
# T1 sequence (Q03431 27-593): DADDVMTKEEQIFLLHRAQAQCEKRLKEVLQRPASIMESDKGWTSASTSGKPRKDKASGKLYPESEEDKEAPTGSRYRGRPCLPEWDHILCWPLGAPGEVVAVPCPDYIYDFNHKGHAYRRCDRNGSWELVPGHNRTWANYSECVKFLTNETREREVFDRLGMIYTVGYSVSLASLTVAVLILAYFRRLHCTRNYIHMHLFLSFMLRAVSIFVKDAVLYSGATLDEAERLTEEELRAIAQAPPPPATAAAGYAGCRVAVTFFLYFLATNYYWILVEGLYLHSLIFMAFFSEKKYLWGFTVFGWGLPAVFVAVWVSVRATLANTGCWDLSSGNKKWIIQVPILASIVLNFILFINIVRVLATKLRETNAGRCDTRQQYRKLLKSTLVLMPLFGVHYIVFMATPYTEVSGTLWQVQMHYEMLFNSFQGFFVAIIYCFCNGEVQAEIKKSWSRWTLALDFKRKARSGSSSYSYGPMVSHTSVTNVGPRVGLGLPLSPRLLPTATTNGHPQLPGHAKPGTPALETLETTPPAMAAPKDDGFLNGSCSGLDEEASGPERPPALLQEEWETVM
# Experiment: In vitro cAMP signal activity in HKRK-B7 cells (LLC-PK1 cells overexpressing the human PTH1 receptor)
# Format: cell-based
# Conditions: HKRK-B7 cells; compound at 1×10^−3 M; cAMP produced as percentage of that produced by hPTH(1-34) at 100 nM
row,SMILES,cAMP production activity (%)
1,"Cc1cc(N(CCO)C(=O)CO)ccc1/C=C/S(=O)(=O)N1CCC2(CC1)N=C(c1cccc(OC(F)(F)F)c1)NC2=O [Compound 722, 2-Hydroxy-N-(2-hydroxy-ethyl)-N-(3-methyl-4-{(E)-2-[4-oxo-2-(3-trifluoromethoxy-phenyl)-1,3,8-triaza-spiro[4.5]dec-1-ene-8-sulfonyl]-vinyl}-phenyl)-acetamide]",60
2,"Cc1cc(C(=O)N2CCS(=O)(=O)CC2)ccc1CCS(=O)(=O)N1CCC2(CC1)N=C(C1CCCCC1)NC2=O [Compound 841, 2-cyclohexyl-8-{2-[4-(1,1-dioxo-1λ^6-thiomorpholine-4-carbonyl)-2-methyl-phenyl]-ethanesulfonyl}-1,3,8-triaza-spiro[4.5]dec-1-en-4-one]",45
3,"Cc1cc(N(C)C(N)=O)cc(C)c1/C=C/S(=O)(=O)N1CCC2(CC1)N=C(c1cccc(-c3cccc(-c4ccccc4)c3)c1)NC2=O [Compound 1157, 1-{3,5-Dimethyl-4-[(E)-2-(4-oxo-2-[1,1′;3′,1″]terphenyl-3-yl-1,3,8-triaza-spiro[4.5]dec-1-ene-8-sulfonyl)-vinyl]-phenyl}-1-methyl-urea]",44
4,"Cc1cc(NC[C@H](O)CO)ccc1CCS(=O)(=O)N1CCC2(CC1)N=C(c1cccc(C(F)(F)F)c1)NC2=O [Compound 155, 8-{2-[4-((S)-2,3-dihydroxy-propylamino)-2-methyl-phenyl]-ethanesulfonyl}-2-(3-trifluoromethyl-phenyl)-1,3,8-triaza-spiro[4.5]dec-1-en-4-one]",45
5,"CCOc1cc(NC(C)=O)ccc1/C=C/S(=O)(=O)N1CCC2(CC1)N=C(C1CCC(C)CC1)NC2=O (stereo not shown) [Compound 509, N-(3-ethoxy-4-{(E)-2-[2-(4-methyl-cyclohexyl)-4-oxo-1,3,8-triaza-spiro[4.5]dec-1-ene-8-sulfonyl]-vinyl}-phenyl)-acetamide]",70
6,"O=C(c1cccc(C2=NC3(CCN(S(=O)(=O)c4cccc(Cl)c4)CC3)C(=O)N2)c1)N1CCOCC1 [Compound 348, 8-(3-Chloro-benzenesulfonyl)-2-[3-(morpholine-4-carbonyl)-phenyl]-1,3,8-triaza-spiro[4.5]dec-1-en-4-one]",5.6
7,"Cc1cc(N2C(=O)NC(C)C2=O)cc(C)c1CCS(=O)(=O)N1CCC2(CC1)N=C(C1CCC(C)CC1)NC2=O (stereo not shown) [Compound 767, 3-(3,5-dimethyl-4-{2-[2-(4-methyl-cyclohexyl)-4-oxo-1,3,8-triaza-spiro[4.5]dec-1-ene-8-sulfonyl]-ethyl}-phenyl)-5-methyl-imidazolidine-2,4-dione]",83
8,"Cc1cc(N2C(=O)CN(C)C2=O)ccc1/C=C/S(=O)(=O)N1CCC2(CC1)N=C(C1CCC(C)CC1)NC2=O (stereo not shown) [Compound 505, 1-methyl-3-(3-methyl-4-{(E)-2-[2-(4-methyl-cyclohexyl)-4-oxo-1,3,8-triaza-spiro[4.5]dec-1-ene-8-sulfonyl]-vinyl}-phenyl)-imidazolidine-2,4-dione]",61
9,"O=C1NC(C2CCCCC2)=NC12CCN(S(=O)(=O)CCc1ccc(CCO)cc1)CC2 [Compound 280, 2-cyclohexyl-8-{2-[4-(2-hydroxy-ethyl)-phenyl]-ethanesulfonyl}-1,3,8-triaza-spiro[4.5]dec-1-en-4-one]",57
10,"Cc1cc(C(=O)N2CCC(C)(O)CC2)cc(C)c1/C=C/S(=O)(=O)N1CCC2(CC1)N=C(c1ccc(OCCCC(F)(F)C(F)(F)F)c(C(F)(F)F)c1)NC2=O [Compound 1202, 8-{(E)-2-[4-(4-hydroxy-4-methyl-piperidine-1-carbonyl)-2,6-dimethyl-phenyl]-ethenesulfonyl}-2-[4-(4,4,5,5,5-pentafluoro-pentyloxy)-3-trifluoromethyl-phenyl]-1,3,8-triaza-spiro[4.5]dec-1-en-4-one]",91
11,"CC(=O)NCCc1ccc(/C=C/S(=O)(=O)N2CCC3(CC2)N=C(C2CCCCC2)NC3=O)cc1 [Compound 481, N-(2-{4-[(E)-2-(2-cyclohexyl-4-oxo-1,3,8-triaza-spiro[4.5]dec-1-ene-8-sulfonyl)-vinyl]-phenyl}-ethyl)-acetamide]",59
12,"Cc1cc(OCCC(O)CO)ccc1/C=C/S(=O)(=O)N1CCC2(CC1)N=C(c1ccc(F)c(OC(F)(F)F)c1)NC2=O (stereo not shown) [Compound 1166, 8-{(E)-2-[4-(3,4-Dihydroxy-butoxy)-2-methyl-phenyl]-ethenesulfonyl}-2-(4-fluoro-3-trifluoromethoxy-phenyl)-1,3,8-triaza-spiro[4.5]dec-1-en-4-one]",144
13,"Cc1cc(OCCOC[C@H](O)CO)cc(C)c1/C=C/S(=O)(=O)N1CCC2(CC1)N=C(C1CCC(CCC(F)(F)F)CC1)NC2=O (stereo partly drawn) [Compound 698, 8-((E)-2-{4-[2-((R)-2,3-dihydroxy-propoxy)-ethoxy]-2,6-dimethyl-phenyl}-ethenesulfonyl)-2-[4-(3,3,3-trifluoro-propyl)-cyclohexyl]-1,3,8-triaza-spiro[4.5]dec-1-en-4-one]",62
14,"Cc1cc(CN(C)C(N)=O)cc(C)c1CCS(=O)(=O)N1CCC2(CC1)N=C(C1CCC(C)CC1)NC2=O (stereo not shown) [Compound 1390, 1-(3,5-dimethyl-4-{2-[2-(4-methyl-cyclohexyl)-4-oxo-1,3,8-triaza-spiro[4.5]dec-1-ene-8-sulfonyl]-ethyl}-benzyl)-1-methyl-urea]",69
15,"Cc1cc(S(=O)(=O)NCC(N)=O)ccc1CCS(=O)(=O)N1CCC2(CC1)N=C(c1cccc(OC(F)(F)F)c1)NC2=O [Compound 675, 2-(3-Methyl-4-{2-[4-oxo-2-(3-trifluoromethoxy-phenyl)-1,3,8-triaza-spiro[4.5]dec-1-ene-8-sulfonyl]-ethyl}-benzenesulfonylamino)-acetamide]",68
16,"CCCCC1CCC(C2=NC3(CCN(S(=O)(=O)/C=C/c4ccc(N5C(=O)CNC5=O)cc4C)CC3)C(=O)N2)CC1 (stereo not shown) [Compound 560, 3-(4-{(E)-2-[2-(4-Butyl-cyclohexyl)-4-oxo-1,3,8-triaza-spiro[4.5]dec-1-ene-8-sulfonyl]-vinyl}-3-methyl-phenyl)-imidazolidine-2,4-dione]",66
17,"CC(=O)NCc1cc(C)c(CCS(=O)(=O)N2CCC3(CC2)N=C(C2CCC(CCC(F)(F)F)CC2)NC3=O)c(C)c1 (stereo not shown) [Compound 772, N-[3,5-dimethyl-4-(2-{4-oxo-2-[4-(3,3,3-trifluoro-propyl)-cyclohexyl]-1,3,8-triaza-spiro[4.5]dec-1-ene-8-sulfonyl}-ethyl)-benzyl]-acetamide]",69
18,"Cc1cc(N(C)C(N)=O)cc(C)c1CCS(=O)(=O)N1CCC2(CC1)N=C(CCCCCCCCCCCC(=O)O)NC2=O [Compound 1170, 12-(8-{2-[2,6-dimethyl-4-(1-methyl-ureido)-phenyl]-ethanesulfonyl}-4-oxo-1,3,8-triaza-spiro[4.5]dec-1-en-2-yl)-dodecanoic acid]",24
19,"O=C1NC(C2CCCCC2)=NC12CCN(S(=O)(=O)CCCc1cccc(C(F)(F)F)c1)CC2 [Compound 315, 2-cyclohexyl-8-[3-(3-trifluoromethyl-phenyl)-propane-1-sulfonyl]-1,3,8-triaza-spiro[4.5]dec-1-en-4-one]",26

# Reference: US9169254B2, “Spiroimidazolone derivative” (Chugai Seiyaku Kabushiki Kaisha, priority 2009, dated 2015)
